Experiment [1] has as its system Staphylococcus aureus. Nature of the experiment: Compound tested to inhibit staphylococcal AgrC-2. Type of experiment: functional, organism-based.
Experiment [2] deals with Staphylococcus aureus. Nature of the experiment: Compound tested to inhibit staphylococcal AgrC-1. Type of experiment: functional, organism-based.

Positions of bridges follow the written chain, without caps; N, C: chain ends. Non-standard residues stand in square brackets, D forms with d. Residues, ends and D or L forms follow the SMILES beside them. Abu = CC[C@H](N)C(=O)O

In the case of `CC[C@H](C)[C@@H]1NC(=O)[C@@H](Cc2ccccc2)NC(=O)[C@H](C)NC(=O)[C@H](NC(=O)[C@@H](NC(=O)[C@H](CO)NC(=O)CCCOc2ccc(Cc3ccccc3)cc2)[C@@H](C)O)CSC(=O)[C@H](CCSC)NC1=O`, the IC50 stood at 19 nM in the experiment with Staphylococcus aureus [1] and 295 nM in the experiment on Staphylococcus aureus [2].
For `CC[C@H](C)[C@@H]1NC(=O)[C@H](Cc2ccccc2)NC(=O)[C@H](C)NC(=O)[C@@H](NC(=O)[C@@H](NC(=O)[C@H](CO)NC(=O)[C@@H](N)Cc2ccc(O)cc2)[C@@H](C)O)CSC(=O)[C@H](CCSC)NC1=O` (H-YSTCAFIM; thioester 4-C), in that order: 4 nM and 21 nM.
For `CC[C@@H]1NC(=O)[C@@H](NC(=O)[C@@H](NC(=O)[C@H](CO)NC(=O)[C@@H](N)Cc2ccc(O)cc2)[C@@H](C)O)CSC(=O)[C@H](CCSC)NC(=O)[C@H]([C@@H](C)CC)NC(=O)[C@H](Cc2ccccc2)NC1=O` (H-YSTC[Abu]FIM; thioester 4-C), in that order: 2.8 nM and 137 nM.
For `CC[C@H](C)[C@H]1NC(=O)[C@@H](Cc2ccccc2)NC(=O)[C@@H](C)NC(=O)[C@H](NC(=O)[C@@H](NC(=O)[C@H](CO)NC(=O)CCCOc2ccc(C(=O)c3ccccc3)cc2)[C@@H](C)O)CSC(=O)[C@@H](CCSC)NC1=O`, in that order: 18 nM and 303 nM.

Source of the values: ChEMBL document CHEMBL1136121, “Side-chain-to-tail thiolactone peptide inhibitors of the staphylococcal quorum-sensing system” (Bioorg Med Chem Lett, 2003).
